#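 Five concentrations, 48 hours, 96-well plates. At the GI50, growth is halved. TGI is the concentration that stops growth completely.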
# Legend:
# Assay in all cases: growth of human tumour cells (NCI), 48 h
# [1] = system: 786-0 renal
# [2] = system: A549 NSCLC
# [3] = system: ACHN renal
# [4] = system: BT-549 breast
# [5] = system: CAKI-1 renal
# [6] = system: COLO 205 colon
# [7] = system: DU-145 prostate
# [8] = system: EKVX NSCLC
# [9] = system: HCC-2998 colon
# [10] = system: HCT-116 colon
# [11] = system: HCT-15 colon
# [12] = system: HL-60(TB) leukemia
# [13] = system: HOP-62 NSCLC
# [14] = system: HOP-92 NSCLC
# [15] = system: HS 578T breast
# [16] = system: HT29 colon
# [17] = system: IGROV1 ovarian
# [18] = system: K-562 leukemia
# [19] = system: KM12 colon
# [20] = system: LOX IMVI melanoma
# [21] = system: MALME-3M melanoma
# [22] = system: MCF7 breast
# [23] = system: MDA-MB-231 breast
# [24] = system: MDA-MB-435
# [25] = system: MOLT-4 leukemia
# [26] = system: NCI-H226 lung
# [27] = system: NCI-H23 lung
# [28] = system: NCI-H460 lung
# [29] = system: NCI-H522 lung
# [30] = system: NCI/ADR-RES ovarian
# [31] = system: OVCAR-3 ovarian
# [32] = system: OVCAR-4 ovarian
# [33] = system: OVCAR-5 ovarian
# [34] = system: OVCAR-8 ovarian
# [35] = system: PC-3 prostate
# [36] = system: RPMI-8226 leukemia
# [37] = system: RXF 393 renal
# [38] = system: SF-268 CNS
# [39] = system: SF-295 CNS
# [40] = system: SF-539 CNS
# [41] = system: SK-MEL-2 melanoma
# [42] = system: SK-MEL-28 melanoma
# [43] = system: SK-MEL-5 melanoma
# [44] = system: SK-OV-3 ovarian
# [45] = system: SN12C renal
# [46] = system: SNB-19 CNS
# [47] = system: SNB-75 CNS
# [48] = system: SW-620 colon
# [49] = system: T-47D breast
# [50] = system: TK-10 renal
# [51] = system: U251 CNS
# [52] = system: UACC-257 melanoma
# [53] = system: UACC-62 melanoma
# [54] = system: UO-31 renal
structure (smiles),measurement,setting,value
Nc1c(C(=O)N/N=C/c2ccco2)cnn1-c1ccnc2c(C(F)(F)F)cccc12,GI50,[1],43.6 µM
same,TGI,[1],> 100 µM
same,GI50,[2],> 100 µM
same,TGI,[2],> 100 µM
same,GI50,[3],38.6 µM
same,TGI,[3],> 100 µM
same,GI50,[4],18.2 µM
same,TGI,[4],40.7 µM
same,GI50,[5],37.5 µM
same,TGI,[5],> 100 µM
same,GI50,[6],24.9 µM
same,TGI,[6],53.8 µM
same,GI50,[7],18.3 µM
same,TGI,[7],36.5 µM
same,GI50,[8],82.2 µM
same,TGI,[8],> 100 µM
same,GI50,[9],22.8 µM
same,TGI,[9],48.5 µM
same,GI50,[10],18.2 µM
same,TGI,[10],32.2 µM
same,GI50,[11],18.5 µM
same,TGI,[11],33.1 µM
same,GI50,[12],25.8 µM
same,TGI,[12],49.5 µM
same,GI50,[13],36.5 µM
same,TGI,[13],> 100 µM
same,GI50,[14],25.9 µM
same,TGI,[14],80.8 µM
same,GI50,[15],35.4 µM
same,TGI,[15],89.1 µM
same,GI50,[16],19.8 µM
same,TGI,[16],38.8 µM
same,GI50,[17],25.4 µM
same,TGI,[17],80.1 µM
same,GI50,[18],24.2 µM
same,TGI,[18],49.1 µM
same,GI50,[19],31.9 µM
same,TGI,[19],75 µM
same,GI50,[20],17.4 µM
same,TGI,[20],31.2 µM
same,GI50,[21],73.3 µM
same,TGI,[21],> 100 µM
same,GI50,[22],28 µM
same,TGI,[22],65.4 µM
same,GI50,[23],17.3 µM
same,TGI,[23],38.9 µM
same,GI50,[24],26.2 µM
same,TGI,[24],75.3 µM
same,GI50,[25],23.9 µM
same,TGI,[25],63.5 µM
same,GI50,[26],88.8 µM
same,TGI,[26],> 100 µM
same,GI50,[27],35 µM
same,TGI,[27],> 100 µM
same,GI50,[28],48.1 µM
same,TGI,[28],> 100 µM
same,GI50,[29],29.5 µM
same,TGI,[29],> 100 µM
same,GI50,[30],20.6 µM
same,TGI,[30],41.5 µM
same,GI50,[31],17.8 µM
same,TGI,[31],39 µM
same,GI50,[32],33.5 µM
same,TGI,[32],> 100 µM
same,GI50,[33],23.3 µM
same,TGI,[33],61.6 µM
same,GI50,[34],24.2 µM
same,TGI,[34],57.1 µM
same,GI50,[35],19.3 µM
same,TGI,[35],49.1 µM
same,GI50,[36],19.9 µM
same,TGI,[36],54.2 µM
same,GI50,[37],22.7 µM
same,TGI,[37],43.7 µM
same,GI50,[38],31.6 µM
same,TGI,[38],91.6 µM
same,GI50,[39],38.7 µM
same,TGI,[39],> 100 µM
same,GI50,[40],19.4 µM
same,TGI,[40],41.2 µM
same,GI50,[41],57.4 µM
same,TGI,[41],> 100 µM
same,GI50,[42],19.1 µM
same,TGI,[42],36.8 µM
same,GI50,[43],30 µM
same,TGI,[43],> 100 µM
same,GI50,[44],86.4 µM
same,TGI,[44],> 100 µM
same,GI50,[45],20.2 µM
same,TGI,[45],55 µM
same,GI50,[46],40.3 µM
same,TGI,[46],> 100 µM
same,GI50,[47],28.1 µM
same,TGI,[47],97.7 µM
same,GI50,[48],19.9 µM
same,TGI,[48],37.3 µM
same,GI50,[49],39.5 µM
same,TGI,[49],> 100 µM
same,GI50,[50],55.9 µM
same,TGI,[50],> 100 µM
same,GI50,[51],20.5 µM
same,TGI,[51],40.5 µM
same,GI50,[52],95.3 µM
same,TGI,[52],> 100 µM
same,GI50,[53],35.9 µM
same,TGI,[53],> 100 µM
same,GI50,[54],16.9 µM
same,TGI,[54],33.7 µM
